Test system: MDA-MB-231
Assay: Cytotoxicity against human MDA-MB-231 cells incubated for 72 hrs by MTT assay
Assay type: functional, cell-based
Settings: MDA-MB-231, 72 h

Row | Structure (SMILES) | IC50
1 | COc1cc2c(cc1OC)C(=O)N1CC[C@H](OCCCO[C@H]3CCN4C(=O)c5cc(OC)c(OC)cc5N=C[C@H]34)[C@H]1C=N2 | 236 nM
2 | COC(=O)c1cc(-c2ccc(NC(=O)c3nc(NC(=O)CO[C@H]4CCN5C(=O)c6cc(OC)c(OC)cc6N=C[C@H]45)cn3C)cc2)cn1C | 36 nM

Source: ChEMBL document CHEMBL6109050, “Synthesis of novel pyrrolobenzodiazepine (PBD) C1-substituted monomers and dimers with DNA-binding activity and cytotoxicity” (Bioorg Med Chem Lett, 2025)
